# According to patent US6413508B1, “Green leaf volatiles as synergists for insect pheromones” (The United States of America as represented by the …, priority 1988, dated 2002):
# Columns and labels:
# [1] = system: Boll Weevils; assay: Competitive field test with released weevils, four trap array; type: in vivo, Anthonomus grandis; details: 1.0 mg of the compound
# From the text: The second series of experiments involved an array of four traps. […] The two treatments being tested simultaneously in this competitive arrangement were placed alternately in the traps, i.e., the two traps baited with the same treatment were located diagonally from each other. Odorants diluted in hexane were released from glass capillaries placed in small vials in a container in each trap. […] Traps were then immediately baited. In each test, traps were checked and insects were removed at 1530 hrs and 1700 hrs on the day of release, and before 0900 hrs the next day (the time at which the test was terminated) in order to remove those insects which might have responded prior to darkness on the day of release.
# [2] = system: Single Olfactory Cells Responsive to Volatiles Emanating from a Crushed Cotton Square; assay: Single-cell electrophysiology: action potentials from single olfactory cells; type: cell-based, Anthonomus grandis; details: volatiles emanating from 1 μg of odorant; cell responsive to crushed cotton square
# From the text: Single-cell recording techniques are described in detail elswhere [Dickens, Mitt. Schweiz. Entomol. Ges. 52: 203 (1979); Dickens et al., J. Chem. Ecol. 10: 583 (1984)]. In brief, microelectrodes used for recordings were constructed from 50.8 μm diameter tungsten wire electrolytically sharpened to a tip of 1-2 μm. The recording electrode was positioned under optical control (150-200 X) with a Leitz high-power micromanipulator near either the base of one of the three sensory bands encircling the club, or the base of an individual sensillum just distal to each sensory band region. The ground electrode was inserted in either the rostrum or distal end of the scape. Action potentials were amplified and conditioned by a Grass P-15 preamplifier and Tektronix 5A22N amplifier prior to visualization on a Tektronix 5223 digitizing oscilloscope. The signal then passed through a Teac R51-D data recorder for recording on cassette tapes prior to visualization on a Tektronix 5111 analog oscilloscope. Data were photographed from the analog oscilloscope with a Tektronix C-5C oscilloscope camera. Trains of action potentials were counted visually.
# Upon obtaining a single cell preparation, odorous stimuli were presented every 3 min. […] The first two stimuli tested were volatiles emanating from 1 μg of grandlure, followed by volatiles emanating from a crushed cotton square. These two stimuli served to determine whether the cell was activated by the attractive pheromone of the boll weevil and/or volatiles emanating from its food source.
# [3] = system: Boll Weevils; assay: Competitive field test with released weevils, triangular trap array; type: in vivo, Anthonomus grandis; details: for Mean Trap Capture: three replicates; for activity alone in competition with the other treatments: triangular array, 100 mg alone
# Protocol: Two series of field tests were performed involving released boll weevils, in which grandlure was placed in competition with grandlure + the synergist. In the first series of experiments, a triangular array of traps was used. One trap was placed at each corner of a 20 m equilateral triangle (total of three traps). The three treatments released in this triangular array of traps were: 1) grandlure 3 mg; 2) grandlure 3 mg+synergist 100 mg; and 3) synergist 100 mg. The three synergists tested in these experiments were: trans-2-hexen-1-ol, 1-hexanol, and cis-3-hexen-1-ol. Cigarette filters were used to release the experimental odorants. One hundred insets (50 males and 50 females) were released along a line 20 m from each side of the triangle (300 insects total) at ca. 1000 hrs prior to baiting of the traps at 1200 hrs. Traps were check and insects were removed at 1400 hrs, 1600 hrs, and 1800 hrs, the times at which the test was terminated.
# [4] = system: Scolytus multistriatus; assay: Field test with bark beetles, 4-wk, Orono, Me.; type: in vivo; details: for captures of bark beetles in traps when released with multilure, relative to the pheromone alone: 10 mg each; for Mean % Trap Capture: hexanal 10 mg, 1-hexanol 10 mg, multilure, alone or combined, 4-wk test period
# Protocol: Mean % trap captures were calculated from competitive field tests during a 4-wk test period on campus of the University of Maine, Orono, Me. Total number of S. multistriatus captured was 423. Multilure consisted of α-multistriatin, methyl heptanol, and cubebene as obtained commercially from Dewill Corp., Elmhurst, Ill. Both 1-hexanol and hexanal were released from cigarette filters after dilution in the […] described [McKibben, supra]. Mean weekly trap captures were compared by Duncan's multiple range test [Duncan, Biometrics 11: 1-42 (1955)].
# [5] = system: female C. capitata; assay: Wind tunnel assay with female Mediterranean fruit flies; type: in vivo, Ceratitis capitata; details: laboratory flight tunnel
# Protocol: Flies were assayed in a rectangular glass wind tunnel (90 cm×90 cm×280 cm; flow rate=20 cm/sec) using laboratory-reared 5- to 7-day-old female C. capitata. The odor from 100 male C. capitata (30-50% calling) was obtained, and split through “Teflon” tubing to a secondary container containing the green leaf odor [either 100 μL of a 0.05% mixture in paraffin oil of trans-2-hexen-1-ol, 1-hexanol, cis-3-hexen-1-ol, trans-2-hexenal, and hexanal at a ratio of 158:100:63:24:11 (=glv, green leaf volatiles); or 100 μL of a 10% solution in silicon oil of trans-2-hexenal alone]. The odors were released into the wind tunnel via “Teflon” tubing to […] yellow plastic spheres [McInnis, J. Econ. Entomol. (in press)] with multiple holes to allow odors to emanate. Fifty flies were released 200 cm downwind from the source spheres, and both the number of flies on the spheres at a given time, and total number of landings by the flies were recorded during a 30-min test period. The test with the green leaf volatile blend was replicated five times; the test with trans-2-hexenal was replicated six times.
# [6] = Gas chromatographic analyses of the aldehyde released in the field; details: field conditions in which it was released
# [7] = grandlure 3 mg vs 1-hexanol 100 mg vs both
# [8] = grandlure 3 mg vs cis-3-hexen-1-ol 100 mg vs both
compound,measurement,setting,value
CCCCCCO [1-hexanol],synergism with grandlure (0.8 mg) in competition with grandlure (0.8 mg) alone,[1],effective synergists
same,"Response in impulses/initial 500 msec, Cell #1",[2],11 impulses/initial 500 msec
same,"Response in impulses/initial 500 msec, Cell #2",[2],30 impulses/initial 500 msec
same,"Response in impulses/initial 500 msec, Cell #3",[2],42 impulses/initial 500 msec
same,% Total,[3]; [7],0%
same,Mean Trap Capture,[3]; [7],0 A
same,activity alone in competition with the other treatments,[3],relatively inactive
same,"captures of bark beetles in traps when released with multilure, relative to the pheromone alone",[4],increased
same,Mean % Trap Capture,[4],0a %
"CC1=CC[C@H]2C[C@@H]1C2(C)C [(-)-α-pinene, (−)-α-pinene]","Response in impulses/initial 500 msec, Cell #1",[2],4 impulses/initial 500 msec
same,"Response in impulses/initial 500 msec, Cell #2",[2],0 impulses/initial 500 msec
same,"Response in impulses/initial 500 msec, Cell #3",[2],1 impulses/initial 500 msec
same,"Response in impulses/initial 500 msec, Cell #4",[2],7 impulses/initial 500 msec
O=Cc1ccccc1 [benzaldehyde],"Response in impulses/initial 500 msec, Cell #1",[2],3 impulses/initial 500 msec
same,"Response in impulses/initial 500 msec, Cell #2",[2],0 impulses/initial 500 msec
same,"Response in impulses/initial 500 msec, Cell #3",[2],1 impulses/initial 500 msec
same,"Response in impulses/initial 500 msec, Cell #4",[2],0 impulses/initial 500 msec
CCC/C=C\CO [cis-2-hexen-1-ol],synergism with grandlure (0.8 mg) in competition with grandlure (0.8 mg) alone,[1],no synergism
CC/C=C\CCO [cis-3-hexen-1-ol],synergism with grandlure (0.8 mg) in competition with grandlure (0.8 mg) alone,[1],effective synergists
same,% Total,[3]; [8],0%
same,Mean Trap Capture,[3]; [8],0 B
same,activity alone in competition with the other treatments,[3],relatively inactive
CC(C)=CCC/C(C)=C/CO [geraniol],"Response in impulses/initial 500 msec, Cell #1",[2],1 impulses/initial 500 msec
same,"Response in impulses/initial 500 msec, Cell #2",[2],3 impulses/initial 500 msec
same,"Response in impulses/initial 500 msec, Cell #3",[2],5 impulses/initial 500 msec
same,"Response in impulses/initial 500 msec, Cell #4",[2],0 impulses/initial 500 msec
CCCCCCC=O [heptanal],"Response in impulses/initial 500 msec, Cell #1",[2],1 impulses/initial 500 msec
same,"Response in impulses/initial 500 msec, Cell #2",[2],0 impulses/initial 500 msec
same,"Response in impulses/initial 500 msec, Cell #3",[2],0 impulses/initial 500 msec
same,"Response in impulses/initial 500 msec, Cell #4",[2],16 impulses/initial 500 msec
CCCCCC=O [hexanal],"Response in impulses/initial 500 msec, Cell #1",[2],16 impulses/initial 500 msec
same,"Response in impulses/initial 500 msec, Cell #2",[2],13 impulses/initial 500 msec
same,"Response in impulses/initial 500 msec, Cell #4",[2],27 impulses/initial 500 msec
same,"captures of bark beetles in traps when released with multilure, relative to the pheromone alone",[4],increased
same,Mean % Trap Capture,[4],0.3a %
C=CC(C)(O)CCC=C(C)C (stereo not shown) [linalool],"Response in impulses/initial 500 msec, Cell #1",[2],3 impulses/initial 500 msec
same,"Response in impulses/initial 500 msec, Cell #2",[2],2 impulses/initial 500 msec
same,"Response in impulses/initial 500 msec, Cell #3",[2],1 impulses/initial 500 msec
same,"Response in impulses/initial 500 msec, Cell #4",[2],11 impulses/initial 500 msec
C=CC(=C)CCC=C(C)C [myrcene],"Response in impulses/initial 500 msec, Cell #1",[2],2 impulses/initial 500 msec
same,"Response in impulses/initial 500 msec, Cell #2",[2],1 impulses/initial 500 msec
same,"Response in impulses/initial 500 msec, Cell #3",[2],1 impulses/initial 500 msec
same,"Response in impulses/initial 500 msec, Cell #4",[2],3 impulses/initial 500 msec
CC(C)=CCC/C(C)=C\CO [nerol],"Response in impulses/initial 500 msec, Cell #1",[2],3 impulses/initial 500 msec
same,"Response in impulses/initial 500 msec, Cell #2",[2],4 impulses/initial 500 msec
same,"Response in impulses/initial 500 msec, Cell #3",[2],8 impulses/initial 500 msec
same,"Response in impulses/initial 500 msec, Cell #4",[2],11 impulses/initial 500 msec
CCCCCCCCC=O [nonanal],"Response in impulses/initial 500 msec, Cell #1",[2],2 impulses/initial 500 msec
same,"Response in impulses/initial 500 msec, Cell #2",[2],0 impulses/initial 500 msec
same,"Response in impulses/initial 500 msec, Cell #3",[2],0 impulses/initial 500 msec
same,"Response in impulses/initial 500 msec, Cell #4",[2],4 impulses/initial 500 msec
CCC/C=C/C=O [trans-2-hexenal],synergism with grandlure (0.8 mg) in competition with grandlure (0.8 mg) alone,[1],no significant difference
same,"Response in impulses/initial 500 msec, Cell #1",[2],27 impulses/initial 500 msec
same,"Response in impulses/initial 500 msec, Cell #2",[2],24 impulses/initial 500 msec
same,"Response in impulses/initial 500 msec, Cell #3",[2],1 impulses/initial 500 msec
same,"Response in impulses/initial 500 msec, Cell #4",[2],38 impulses/initial 500 msec
same,response of female flies to male odor plus the green leaf odor relative to male odor alone,[5],enhanced response
same,degradation under field conditions,[6],in part been degraded
CC(C)=CCC[C@H](C)[C@@]1(O)CC=C(C)CC1 [β-bisabolol],"Response in impulses/initial 500 msec, Cell #1",[2],3 impulses/initial 500 msec
same,"Response in impulses/initial 500 msec, Cell #2",[2],3 impulses/initial 500 msec
same,"Response in impulses/initial 500 msec, Cell #3",[2],5 impulses/initial 500 msec
same,"Response in impulses/initial 500 msec, Cell #4",[2],2 impulses/initial 500 msec
C=C1CC/C=C(\C)CC[C@@H]2[C@@H]1CC2(C)C [β-caryophyllene],"Response in impulses/initial 500 msec, Cell #1",[2],2 impulses/initial 500 msec
same,"Response in impulses/initial 500 msec, Cell #2",[2],2 impulses/initial 500 msec
same,"Response in impulses/initial 500 msec, Cell #3",[2],0 impulses/initial 500 msec
same,"Response in impulses/initial 500 msec, Cell #4",[2],1 impulses/initial 500 msec
(−)-limonene [(-)-limonene],"Response in impulses/initial 500 msec, Cell #1",[2],0 impulses/initial 500 msec
same,"Response in impulses/initial 500 msec, Cell #2",[2],0 impulses/initial 500 msec
same,"Response in impulses/initial 500 msec, Cell #3",[2],2 impulses/initial 500 msec
same,"Response in impulses/initial 500 msec, Cell #4",[2],1 impulses/initial 500 msec
gossonerol,"Response in impulses/initial 500 msec, Cell #1",[2],3 impulses/initial 500 msec
same,"Response in impulses/initial 500 msec, Cell #4",[2],12 impulses/initial 500 msec
α-bisabolol,"Response in impulses/initial 500 msec, Cell #1",[2],3 impulses/initial 500 msec
same,"Response in impulses/initial 500 msec, Cell #2",[2],12 impulses/initial 500 msec
same,"Response in impulses/initial 500 msec, Cell #3",[2],3 impulses/initial 500 msec
same,"Response in impulses/initial 500 msec, Cell #4",[2],2 impulses/initial 500 msec
